Experimental data taken from patent publication US20260224563A1, “CRYSTALLINE FORMS OF 6-(3-((5-CHLORO-2-METHOXYPYRIDINE)-3-SULFONAMIDO)-2,6-DIFLUOROPHENYL)-N-METHYLIMIDAZO[1,5-A]PYRAZINE-1-CARBOXAMIDE AND METHODS FOR USING THE SAME” (HIBERCELL, INC., priority 2023, published 2026).
Like-named read-outs stand apart in the source and are kept apart here.

Assay: Multicenter, open-label, Phase 1a/b study of HC-7366 in subjects with advanced solid tumors (safety, PK)
Format: in vivo
Details: for AUC(0-t) / Vd/F / Tmax / Cmax / half-life / % AUCextrap / CL/F / DAUC0-24 / DAUC0-last / DAUC0-∞ / DCmax / tlast / LR / AUC / AUC(0-inf): human; for AUC(0-t) / Vd/F / Tmax / Cmax / half-life / AUC / AUC(0-inf): plasma; for AUC(0-t) / Vd/F / Tmax / Cmax / half-life: po; for Vd/F: read-out: Vz/F; for LR: linearity ratio; for AUC: read-out: AUC0-τ
From the text: Identify the maximum tolerated dose (MTD) and/or recommended Phase 2 dose (RP2D) of HC-7366, and evaluate the safety, tolerability, and dose-limiting toxicities (DLTs) of HC-7366 using Form III of the potassium salt of the compound of formula (I) (see Example 6, also referred to within this example as HC-7366-K), in subjects with advanced solid tumors, including: • a. occurrence of DLTs • b. incidence and severity of treatment-emergent adverse events (TEAEs) and treatment related TEAEs according to National Cancer Institute Common Terminology Criteria for Adverse Events (NCI CTCAE) v 5.0 • c. incidence of TEAEs leading to premature discontinuation • d. incidence of laboratory abnormalities, based on NCI CTCAE grades of hematology, serum chemistry, and urinalysis test results • e. incidence of abnormalities observed in 12 lead ECG parameters • f. incidence of abnormalities observed in vital signs measurements
Determine plasma concentration and pharmacokinetic (PK) parameters following treatment with HC-7366 using Form III of the potassium salt of the compound of formula (I) (see Example 6, also referred to within this example as HC-7366-K).
Preliminarily assess the potential antitumor activity of HC-7366 in terms of response rate, disease stabilization, and survival outcomes by assessing: • a. Overall response rate (ORR) to HC-7366 using response evaluation criteria in solid tumors (iRECIST) • b. Duration of response (DOR) to HC-7366 using iRECIST • c. Time to treatment failure (TTF) • d. Progression free survival (PFS) using iRECIST • e. Overall survival (OS)
This is a first in human, multicenter, open label, Phase 1a and 1b dose-escalation and dose-expansion study to establish the maximum tolerated dose, recommended Phase 2 dose, and evaluate the safety and tolerability of QD oral dosing of HC 7366 in a dose escalating fashion in subjects with advanced solid tumors. Up to 40 subjects were enrolled into the Phase 1a dose-escalation part of the study. The study was conducted in the United States at approximately 7 to 10 sites.
Every effort was made to ensure approximately 50% of all subjects enrolled into Phase 1a of this study are subjects with the tumors of special interest including squamous cell carcinoma of the head and neck, colorectal cancer, non-small cell lung cancer, and transitional cell carcinoma of the bladder. […] All subjects in Phase 1b enrolled with clear cell renal cell carcinoma. The Phase 1a study followed a traditional 3+3 design. The starting dose level was 10 mg QD, escalating to 20, 40, 75, 125, and 150 mg QD as safety allows. All doses were administered in the fasting state with water at least 1 hour before food or at least 2 hours after food.
The Phase 1b dose-expansion was at a single dose level of 75 mg based on the safety, tolerability, PK/PD results from Phase 1a to obtain additional safety and preliminary efficacy information. Up to 30 subjects were enrolled in the Phase 1b portion of the study at the 75 mg dose. Replacement patients were enrolled as necessary. Subjects were dosed until unacceptable toxicity, disease progression per immune-related Response Evaluation Criteria in Solid Tumors, discontinuation of treatment for other protocol allowed reason (eg, subject refusal), any other administrative reasons, or after 2 years of treatment, whichever occurs first.
For scheduling purposes, dosing in Phase 1a and 1b occurred in 3 week cycles and computed tomography scans were conducted once every 6 weeks from Cycle 1/Day 1, with the first postbaseline scan after 6 weeks of dosing (precycle 3) until confirmed disease progression, death, start of new anticancer therapy, withdrawal of consent, or end of study, whichever occurs first.
Subjects of Phase 1a and 1b spent Cycle 1/Day 1 (C1D1) in the clinic followed by an optional overnight stay for safety monitoring and PK sampling. Subjects were hospitalized (optional) for administration of the first 2 doses: C1D1 and Cycle 1/Day 2 (C1D2). […]

[1] = 75 mg, multiple once daily oral 75 mg (N = 7), Cycle 1 Day 21, geometric mean
[2] = 75 mg, single oral dose 75 mg (N = 10), Cycle 1 Day 1, geometric mean
[3] = 125 mg, multiple once daily oral 125 mg (N = 1), Cycle 1 Day 21
[4] = 125 mg, single oral dose 125 mg (N = 6), Cycle 1 Day 1, geometric mean
[5] = single oral dose 10 mg (N = 3), Cycle 1 Day 1, geometric mean
[6] = single oral dose 20 mg (N = 3), Cycle 1 Day 1, geometric mean
[7] = single oral dose 40 mg (N = 11), Cycle 1 Day 1, geometric mean
[8] = single oral dose 75 mg (N = 10), Cycle 1 Day 1, geometric mean
[9] = single oral dose 125 mg (N = 6), Cycle 1 Day 1, geometric mean
[10] = multiple once daily oral 10 mg (N = 3), Cycle 1 Day 21, geometric mean
[11] = multiple once daily oral 20 mg (N = 3), Cycle 1 Day 21, geometric mean
[12] = multiple once daily oral 40 mg (N = 8), Cycle 1 Day 21, geometric mean
[13] = multiple once daily oral 75 mg (N = 7), Cycle 1 Day 21, geometric mean
[14] = multiple once daily oral 125 mg (N = 1), Cycle 1 Day 21

CNC(=O)c1ncn2cc(-c3c(F)ccc(NS(=O)(=O)c4cc(Cl)cnc4OC)c3F)ncc12 [HC-7366, 6-(3-((5-chloro-2-methoxypyridine)-3-sulfonamido)-2,6-difluorophenyl)-N-methylimidazo[1,5-a]pyrazine-1-carboxamide]
AUC(0-t) (40 mg, single oral dose 40 mg (N = 11), Cycle 1 Day 1, geometric mean, read-out: AUC0-24): 52900 ng·h/mL
AUC(0-t) (40 mg, single oral dose 40 mg (N = 11), Cycle 1 Day 1, geometric mean, read-out: AUC0-last): 52900 ng·h/mL
Vd/F (40 mg, single oral dose 40 mg (N = 11), Cycle 1 Day 1, geometric mean): 10.5 L
Tmax (40 mg, single oral dose 40 mg (N = 11), Cycle 1 Day 1, median): 2 h
Cmax [1]: 14300 ng/mL
half-life [1]: 17.8 h
AUC(0-t) (75 mg, multiple once daily oral 75 mg (N = 7), Cycle 1 Day 21, geometric mean, read-out: AUC0-last): 166000 ng·h/mL
Vd/F [1]: 9.51 L
Tmax (75 mg, multiple once daily oral 75 mg (N = 7), Cycle 1 Day 21, median): 2 h
Cmax [2]: 10200 ng/mL
half-life [2]: 15.2 h
AUC(0-t) (75 mg, single oral dose 75 mg (N = 10), Cycle 1 Day 1, geometric mean, read-out: AUC0-24): 100000 ng·h/mL
AUC(0-t) (75 mg, single oral dose 75 mg (N = 10), Cycle 1 Day 1, geometric mean, read-out: AUC0-last): 100000 ng·h/mL
Vd/F [2]: 11.2 L
Tmax (75 mg, single oral dose 75 mg (N = 10), Cycle 1 Day 1, median): 2 h
Cmax [3]: 38200 ng/mL
half-life [3]: 16.5 h
AUC(0-t) (125 mg, multiple once daily oral 125 mg (N = 1), Cycle 1 Day 21, read-out: AUC0-last): 260000 ng·h/mL
Vd/F [3]: 7.4 L
Cmax [4]: 18800 ng/mL
half-life [4]: 14 h
AUC(0-t) (125 mg, single oral dose 125 mg (N = 6), Cycle 1 Day 1, geometric mean, read-out: AUC0-24): 216000 ng·h/mL
AUC(0-t) (125 mg, single oral dose 125 mg (N = 6), Cycle 1 Day 1, geometric mean, read-out: AUC0-last): 204000 ng·h/mL
Vd/F [4]: 7.85 L
Tmax (125 mg, single oral dose 125 mg (N = 6), Cycle 1 Day 1, median): 2 h
% AUCextrap [5]: 22.7%
CL/F [5]: 0.508 L/h
DAUC0-24 [5]: 1510 ng·h/mL/mg
DAUC0-last [5]: 1510 ng·h/mL/mg
DAUC0-∞ [5]: 1970 ng·h/mL/mg
DCmax [5]: 145 ng/mL/mg
tlast (single oral dose 10 mg (N = 3), Cycle 1 Day 1, median): 24.00 h
% AUCextrap [6]: 17.9%
CL/F [6]: 0.544 L/h
DAUC0-24 [6]: 1440 ng·h/mL/mg
DAUC0-last [6]: 1440 ng·h/mL/mg
DAUC0-∞ [6]: 1840 ng·h/mL/mg
DCmax [6]: 116 ng/mL/mg
tlast (single oral dose 20 mg (N = 3), Cycle 1 Day 1, median): 24.00 h
% AUCextrap [7]: 31.0%
CL/F [7]: 0.491 L/h
DAUC0-24 [7]: 1320 ng·h/mL/mg
DAUC0-last [7]: 1320 ng·h/mL/mg
DAUC0-∞ [7]: 2040 ng·h/mL/mg
DCmax [7]: 113 ng/mL/mg
tlast (single oral dose 40 mg (N = 11), Cycle 1 Day 1, median): 24.00 h
% AUCextrap [8]: 30.2%
CL/F [8]: 0.508 L/h
DAUC0-24 [8]: 1340 ng·h/mL/mg
DAUC0-last [8]: 1340 ng·h/mL/mg
DAUC0-∞ [8]: 1970 ng·h/mL/mg
DCmax [8]: 136 ng/mL/mg
tlast (single oral dose 75 mg (N = 10), Cycle 1 Day 1, median): 24.00 h
% AUCextrap [9]: 33.6%
CL/F [9]: 0.390 L/h
DAUC0-24 [9]: 1730 ng·h/mL/mg
DAUC0-last [9]: 1630 ng·h/mL/mg
DAUC0-∞ [9]: 2570 ng·h/mL/mg
DCmax [9]: 150 ng/mL/mg
tlast (single oral dose 125 mg (N = 6), Cycle 1 Day 1, median): 24.00 h
LR [10]: 1.11
LR [11]: 1.14
LR [12]: 1.11
LR [13]: 1.22
LR [14]: 0.759
subjects who discontinued treatment due to an AE (of 34 treated subjects, 10 to 125 mg cohorts): 5 subjects
AUC [10]: 21900 ng·h/mL
AUC [11]: 41900 ng·h/mL
AUC [12]: 99300 ng·h/mL
AUC [13]: 187000 ng·h/mL
AUC [14]: 401000 ng·h/mL
AUC(0-inf) [5]: 19700 ng·h/mL
AUC(0-inf) [6]: 36800 ng·h/mL
AUC(0-inf) [7]: 81500 ng·h/mL
AUC(0-inf) [8]: 148000 ng·h/mL
AUC(0-inf) [9]: 321000 ng·h/mL
